# Laboratory results from patent US7879861B2, “Combi-molecules having EGFR and DNA targeting properties” (priority 2005, dated 2011).
# Values joined by “and” are separate entries in the source; they are usually repeats but may differ in a detail not shown here. Identical values can stand only once. “Also recorded” adds a separate entry of the source. Like-named read-outs stand apart in the source and are kept apart here.
# Key:
# [1] = test system: MDA-MB-468 cells; assay: Reversibility of antiproliferative effect, SRB assay; assay type: cell-based, human
# Protocol: (§1) In vitro growth inhibition assay: To study the effect of the compounds on growth factor stimulated-proliferation, cells were grown to 70% of confluence in 48-well plates. […] Cell growth was measured using the sulforhodamine B (SRB) assay (24). Briefly, following drug treatment, cells were fixed using 50 μl of cold trichloroacetic acid (50%) for 60 min at 4° C., washed five times with tap water, and stained for 30 min at room temperature with SRB (0.4%) and dissolved in acetic acid (0.5%). The plates were rinsed five times with 1% acetic acid and allowed to air dry. The resulting colored residue was dissolved in 200 μl of Tris base (10 mM), and the optical density read for each well at 450 nm using a Bio-Rad microplate reader (model 2550). […] Cell growth was measured using SRB assay as described previously.
# [2] = test system: MDA-MB-453 cells; assay: as above; assay type: cell-based, human
# Protocol: as §1
# [3] = test system: DNA of MDA-MB-468 cells; assay: Alkaline comet assay for DNA damage; assay type: cell-based, human; conditions: 2 h drug exposure
# Protocol: Alkaline Comet Assay for quantization of DNA damage: The alkaline comet assay was performed as described in previously published procedures (19, 20). The cells were exposed to drugs for 2 h, harvested with trypsin-EDTA and re-suspended in PBS. Cell suspensions were diluted to approximately 10^6 cells, and mixed with agarose (1%) in PBS at 37° C. in a 1:10 dilution. The gels were cast on Gelbond strips (Mandel Scientific, Canada) using gel casting chambers and then immediately placed into a lysis buffer [2.5 M NaCl, 0.1 M tetra-sodium EDTA, 10 mM Tris-base and 1% (v/v) Triton X-100, pH 10.0]. After being kept on ice for 30 min, the gels were gently rinsed with distilled water and immersed in a second lysis buffer (2.5 M NaCl, 0.1 M tetrasodium EDTA, 10 mM Tris-base) containing 1 mg/ml proteinase K for 60 min at 37° C. Thereafter, the gels were rinsed with distilled water, incubated in alkaline electrophoresis buffer for 30 min at 37° C., and electrophoresed at 19 V for 20 min. […] Comets were visualized at 330× magnification and DNA damage was quantitated using the Tail Moment parameter (i.e., the distance between the barycenter of the head and the tail of the comet multiplied by the percentage of DNA within the tail of the comet). A minimum of 50 cell/comets were analyzed for each sample, using ALKOMET version 3.1 image analysis software.
# [4] = test system: MAPK (Erk1, 2); assay: EGF-stimulated MAPK phosphorylation in MDA-MB-468 cells (Western blot); assay type: cell-based, human; conditions: at concentrations as low as 1 μM
# Protocol: (§2) Autophosphorylation assay: Inhibition of receptor autophosphorylation in viable cells was determined by anti-phosphotyrosine Western blots as previously described (19). […] Equal amounts of cell lysates were analyzed by Western blot using anti-phosphotyrosine antibodies. Membranes were stripped of anti-phosphotyrosine and reprobed with anti-EGFR or anti-erbB2 antibodies (NeoMarkers, Fremont, Calif.). To study whether an inhibition is reversible or not, duplicate sets of cells were treated with 2 μM of designated compound for 2 h. One set of cells was then stimulated with EGF. The other set of cells was washed free of the compound with warmed serum-free media, incubated for 2 h, washed again, incubated for another 2 h, and incubated for a further 4 h after a subsequent wash. This set of cells was then stimulated with EGF. Western blot was performed as previously described. […] The membrane was incubated with anti-phosphorylated MAPK (Erk1,2) or anti-Erk 1,2 antibodies (Cell Signaling Technology Inc., Beverly, Mass.).
# [5] = biological target: EGFR (Homo sapiens, UniProt P00533); assay: Reversibility of EGFR autophosphorylation inhibition in MDA-MB-468 cells (washout, 8 h); assay type: cell-based; parameters: EGF-induced EGFR autophosphorylation in MDA-MB-468 cells; endogenous in cells; host or cells: MDA-MB-468 (ATCC)
# Protocol: To test this hypothesis, the reversibility assay described by Fry et al. (13) and Smaill et al. (14) was used, according to which the cells are treated with inhibitors (2 μM) for 2 h and then washed free of drug. After 8 h, EGF was added; after a 10-min incubation the cells were lysed, and the degree of EGFR autophosphorylation measured.
# [6] = test system: NIH3T3HER14 cells; assay: Growth factor-stimulated proliferation, SRB assay; assay type: cell-based, mouse; conditions: 72 h
# Protocol: In vitro growth inhibition assay: To study the effect of the compounds on growth factor stimulated-proliferation, cells were grown to 70% of confluence in 48-well plates. They were subsequently washed twice with PBS, incubated in serum-free medium for 18 h and exposed to each drug+growth factors (EGF, TGFα, PDGF or serum) for 72 h. Cell growth was measured using the sulforhodamine B (SRB) assay (24). Briefly, following drug treatment, cells were fixed using 50 μl of cold trichloroacetic acid (50%) for 60 min at 4° C., washed five times with tap water, and stained for 30 min at room temperature with SRB (0.4%) and dissolved in acetic acid (0.5%). The plates were rinsed five times with 1% acetic acid and allowed to air dry. The resulting colored residue was dissolved in 200 μl of Tris base (10 mM), and the optical density read for each well at 450 nm using a Bio-Rad microplate reader (model 2550). […] Cell growth was measured using SRB assay as described previously.
# [7] = biological target: T1, erbB2 (Homo sapiens, UniProt P04626); assay: Heregulin-induced autophosphorylation in MDA-MB-453 cells (Western blot); assay type: cell-based; conditions: 2 h preincubation, heregulin 10 min
# T1 construct: heregulin-induced autophosphorylation in MDA-MB-453 cells; endogenous in cells; host or cells: MDA-MB-453 (ATCC)
# Protocol: as §2
# [8] = Chemical stability of combi-molecules; assay type: physicochemical
# [9] = test system: human breast carcinoma MDA-MB-468; assay: In vivo efficacy, MDA-MB-468 implanted s.c.; parameters: species or system SCID mice
# Protocol: In vivo studies: SCID mice were maintained as per McGill animal safety protocols. In a preliminary model, SCID mice housed in filtered cages were implanted subcutaneously (s.c.) with the human breast carcinoma MDA-MB-468 and treatment began when the tumors were palpable (8 mice/group). […] The tumor burdens were measured with a caliper and mice were weighed twice weekly. The study was later repeated with the MDA-MB-468 cells implanted in the mammary fat pad, a model that better mimics human breast carcinoma.
# Chain of EGFR (P00533 25-1210): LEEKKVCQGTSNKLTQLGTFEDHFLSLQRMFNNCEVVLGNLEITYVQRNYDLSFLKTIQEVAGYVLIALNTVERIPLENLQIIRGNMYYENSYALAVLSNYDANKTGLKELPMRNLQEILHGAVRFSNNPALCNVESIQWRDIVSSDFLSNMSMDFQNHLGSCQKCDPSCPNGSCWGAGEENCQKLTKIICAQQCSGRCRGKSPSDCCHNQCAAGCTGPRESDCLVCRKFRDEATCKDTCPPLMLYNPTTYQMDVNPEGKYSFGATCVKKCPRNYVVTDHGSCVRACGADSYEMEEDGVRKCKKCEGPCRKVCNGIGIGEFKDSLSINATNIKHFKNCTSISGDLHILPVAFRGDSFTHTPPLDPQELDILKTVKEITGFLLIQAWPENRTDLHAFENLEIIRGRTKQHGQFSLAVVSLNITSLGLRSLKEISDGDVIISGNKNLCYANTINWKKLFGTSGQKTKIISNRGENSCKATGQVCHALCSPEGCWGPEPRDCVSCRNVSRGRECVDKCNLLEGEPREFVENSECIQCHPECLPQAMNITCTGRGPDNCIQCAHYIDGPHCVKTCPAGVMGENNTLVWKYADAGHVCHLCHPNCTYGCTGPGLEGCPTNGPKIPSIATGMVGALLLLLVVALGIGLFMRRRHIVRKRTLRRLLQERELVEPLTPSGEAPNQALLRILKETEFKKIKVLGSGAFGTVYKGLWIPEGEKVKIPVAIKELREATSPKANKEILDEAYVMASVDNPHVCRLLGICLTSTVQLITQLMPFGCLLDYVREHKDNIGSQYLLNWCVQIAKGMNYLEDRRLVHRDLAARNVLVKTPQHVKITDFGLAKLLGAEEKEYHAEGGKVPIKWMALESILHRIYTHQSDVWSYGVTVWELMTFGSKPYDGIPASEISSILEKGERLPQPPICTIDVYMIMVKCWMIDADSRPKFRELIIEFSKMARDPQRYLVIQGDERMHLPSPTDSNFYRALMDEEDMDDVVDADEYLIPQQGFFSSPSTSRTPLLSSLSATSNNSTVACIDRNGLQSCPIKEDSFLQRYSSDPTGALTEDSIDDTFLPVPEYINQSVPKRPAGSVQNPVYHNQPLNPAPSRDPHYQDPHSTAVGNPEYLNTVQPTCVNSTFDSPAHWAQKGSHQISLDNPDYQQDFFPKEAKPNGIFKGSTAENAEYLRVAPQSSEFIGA
# T1 sequence (P04626 23-1255): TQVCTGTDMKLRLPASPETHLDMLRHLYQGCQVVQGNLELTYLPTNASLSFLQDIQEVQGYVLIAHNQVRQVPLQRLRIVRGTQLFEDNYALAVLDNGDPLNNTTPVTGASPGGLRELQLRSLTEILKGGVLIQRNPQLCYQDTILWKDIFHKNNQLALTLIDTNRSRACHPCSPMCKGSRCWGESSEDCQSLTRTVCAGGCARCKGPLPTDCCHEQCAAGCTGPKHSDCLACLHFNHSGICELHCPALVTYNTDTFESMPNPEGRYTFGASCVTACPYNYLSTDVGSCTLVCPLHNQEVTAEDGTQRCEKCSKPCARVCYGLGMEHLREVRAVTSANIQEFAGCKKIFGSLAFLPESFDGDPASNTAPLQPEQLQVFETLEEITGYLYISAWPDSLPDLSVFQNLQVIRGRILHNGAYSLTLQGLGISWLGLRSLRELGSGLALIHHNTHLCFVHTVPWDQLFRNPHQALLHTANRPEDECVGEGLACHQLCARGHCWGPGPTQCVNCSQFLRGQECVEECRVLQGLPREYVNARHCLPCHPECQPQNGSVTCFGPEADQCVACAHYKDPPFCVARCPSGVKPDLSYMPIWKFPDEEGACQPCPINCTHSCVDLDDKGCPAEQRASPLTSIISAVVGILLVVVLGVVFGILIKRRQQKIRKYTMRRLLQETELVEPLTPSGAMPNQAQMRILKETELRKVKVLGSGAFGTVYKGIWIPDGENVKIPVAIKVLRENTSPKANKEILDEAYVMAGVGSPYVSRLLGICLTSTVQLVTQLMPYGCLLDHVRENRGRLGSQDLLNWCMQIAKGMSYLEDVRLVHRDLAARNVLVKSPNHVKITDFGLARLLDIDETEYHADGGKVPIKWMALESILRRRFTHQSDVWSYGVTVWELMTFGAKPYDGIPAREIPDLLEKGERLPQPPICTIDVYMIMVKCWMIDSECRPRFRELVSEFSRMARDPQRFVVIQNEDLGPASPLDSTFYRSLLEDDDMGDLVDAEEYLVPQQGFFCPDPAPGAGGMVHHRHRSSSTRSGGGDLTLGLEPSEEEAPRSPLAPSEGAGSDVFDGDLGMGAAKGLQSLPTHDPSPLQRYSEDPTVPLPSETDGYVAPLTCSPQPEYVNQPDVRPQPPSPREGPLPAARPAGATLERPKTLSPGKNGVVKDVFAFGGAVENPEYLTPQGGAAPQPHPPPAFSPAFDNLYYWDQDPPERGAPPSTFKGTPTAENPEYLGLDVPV
structure (smiles),measurement,setting,value
ClCCNc1ccc2ncnc(Nc3cccc(Br)c3)c2c1 [ZR2002],IC50,"[1]; Homo sapiens, MDA-MB-468, 120 h, read-out: IC50, growth inhibition, 120 h continuous exposure, MDA-MB-468, SRB",360 nM
same,IC50,"[1]; Homo sapiens, MDA-MB-468, read-out: IC50, growth inhibition, 2 h exposure followed by 120 h recovery, MDA-MB-468, SRB",7400 nM
same,IC50,"[1]; read-out: IC50, growth inhibition, 2 h exposure followed by 120 h recovery, MDA-MB-468, SRB",5160 nM
same,IC50,"[1]; read-out: IC50, growth inhibition, 120 h continuous exposure, MDA-MB-468, SRB",234 nM
same,IC50,"[2]; Homo sapiens, MDA-MB-453, 120 h, read-out: IC50, growth inhibition, 120 h continuous exposure, MDA-MB-453, SRB",430 nM
same,IC50,"[2]; Homo sapiens, MDA-MB-453, read-out: IC50, growth inhibition, 2 h exposure followed by 120 h recovery, MDA-MB-453, SRB",4170 nM
same,IC50,"[2]; read-out: IC50, growth inhibition, 2 h exposure followed by 120 h recovery, MDA-MB-453, SRB",4170 nM
same,IC50,"[2]; read-out: IC50, growth inhibition, 120 h continuous exposure, MDA-MB-453, SRB",426 nM
same,"DNA damage (tail moment), in words",[3],damages DNA in a dose dependent manner
same,concentration inducing significant DNA damage,[3],10 µM
same,inhibition of EGF-stimulated phosphorylation of MAPK,[4],100%
same,mode of EGFR inhibition (reversible / irreversible),[5],irreversible inhibitor of EGFR
same,EGF-dependent EGFR autophosphorylation immediately after drug exposure,"[5]; 2 μM, 2 h",completely suppressed
same,EGF or TGFα-induced proliferation,[6],selectively blocking
same,inhibition at 1 µM,"[6]; Mus musculus, at 1 μM, read-out: inhibition of PDGF-stimulated growth",100%
same,inhibition at 10 µM,"[6]; Mus musculus, at concentrations >10 μM, read-out: inhibition of serum-stimulated growth",100%
same,inhibition at 0.1 µM,"[6]; Mus musculus, at concentrations as low at 0.1 μM, read-out: inhibition of EGF-stimulated growth",100%
same,IC50,[7],~230 nM and 236 nM
same,chemical stability (in words),[8],stable compound that does not self-alkylate
same,in vivo antitumor activity,"[9]; 50 mg/kg i.p. every 3-4 days, one month, s.c. tumors, p<0.001 vs vehicle",modest; also recorded: moderate antiproliferative activity
same,tolerated dose,"[9]; SCID mice, i.p.",50 mg/kg
